Results taken from patent publication US7943607B2, “Heteroaryl benzamide derivatives for use as GLK activators in the treatment of diabetes” (AstraZeneca AB, priority 2005, dated 2011).

Tests used:
[1] = target: T1, recombinant human pancreatic GLK (Homo sapiens, UniProt P35557); assay: biochemical
T1 sequence (P35557 1-465): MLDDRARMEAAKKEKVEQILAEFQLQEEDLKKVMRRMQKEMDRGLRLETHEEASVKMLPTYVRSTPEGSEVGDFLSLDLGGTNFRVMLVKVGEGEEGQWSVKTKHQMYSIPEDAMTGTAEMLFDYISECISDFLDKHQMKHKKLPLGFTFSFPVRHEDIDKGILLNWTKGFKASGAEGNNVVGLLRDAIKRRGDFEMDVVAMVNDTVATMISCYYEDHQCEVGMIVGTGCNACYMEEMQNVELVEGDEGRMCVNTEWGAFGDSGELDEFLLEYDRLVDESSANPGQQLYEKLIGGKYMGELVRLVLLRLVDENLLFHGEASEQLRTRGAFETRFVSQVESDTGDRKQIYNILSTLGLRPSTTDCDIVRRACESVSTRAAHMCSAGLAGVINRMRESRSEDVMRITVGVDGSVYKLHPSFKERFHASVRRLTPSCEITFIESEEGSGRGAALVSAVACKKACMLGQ

Zucker obese fa/fa rats = assay: Oral Glucose Tolerance Test (OGTT); format: in vivo, rat; conditions: 10 mg/kg; given orally 120 minutes before oral glucose 2 g/kg; Zucker obese fa/fa rats on high fat diet
Method: Oral glucose tolerance tests were done on conscious Zucker obese fa/fa rats (age 12-13 weeks or older) fed a high fat diet (45% kcal fat) for at least two weeks prior to experimentation. The animals were fasted for 2 hours before use for experiments. A test compound or a vehicle was given orally 120 minutes before oral administration of a glucose solution at a dose of 2 g/kg body weight. Blood glucose levels were measured using a Accucheck glucometer from tail bled samples taken at different time points before and after administration of glucose (time course of […]). A time curve of the blood glucose levels was generated and the area-under-the-curve (AUC) for 120 minutes was calculated (the time of glucose administration being time zero). Percent reduction in glucose excursion was determined using the AUC in the vehicle-control group as zero percent reduction.

## C[C@@H](CO)Oc1cc(Oc2cc3c(cc2F)S(=O)(=O)CCCO3)cc(C(=O)Nc2ccn(C)n2)c1 [Example 3, 3-[(7-Fluoro-5,5-dioxido-3,4-dihydro-2H-1,5-benzoxathiepin-8-yl)oxy]-5-[(1S)-2-hydroxy-1-methylethoxy]-N-(1-methyl-1H-pyrazol-3-yl)benzamide]
[1]
  EC50: 38 nM
Zucker obese fa/fa rats
  OGTT activity (percent reduction in glucose excursion, AUC vs vehicle control): 29%
